Test systems include COLO 205 colon; HL-60(TB) leukemia; OVCAR-4 ovarian; OVCAR-8 ovarian; NCI-H460 lung; SF-295 CNS; HOP-62 NSCLC; SR leukemia; SF-268 CNS; CCRF-CEM leukemia.
What all share (assay): NCI anticancer screen, dose series, 48 h

Several values for one entry are separate records, joined by “and”; a condition that tells them apart may be missing. Equal entries are not always repeated.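 Compound exposure: 48 hours, 5 concentrations, 96-well plates. At the GI50, growth is halved. TGI: total growth inhibition.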

Our source for the TGI and GI50 values is PubChem BioAssay (NCI).

Turning to `COc1cc(C2C(C(=O)Nc3ccccc3)=C(C)NC(C)=C2C(=O)Nc2ccccc2)ccc1O`, the TGI with COLO 205 colon was 60.4 µM; with HL-60(TB) leukemia, 54.2 µM; in the experiment on OVCAR-4 ovarian, greater than 100 µM; in the experiment with OVCAR-8 ovarian it was 85.1 µM; in the experiment on NCI-H460 lung, greater than 100 µM; with SF-295 CNS it was greater than 100 µM. For the same compound, the TGI is greater than 100 µM in the experiment with HOP-62 NSCLC, 93.3 µM in the experiment with SR leukemia and greater than 100 µM in the experiment with SF-268 CNS.

Take `C[C@@H]1CC[C@@]2(OC1)O[C@H]1C[C@H]3[C@@H]4CC=C5C[C@@H](O[C@@H]6O[C@H](CO)[C@@H](O[C@@H]7O[C@@H](CO)[C@H](O)[C@H]7O)[C@H](O)[C@H]6O[C@@H]6O[C@@H](C)[C@H](O)[C@@H](O)[C@H]6O)CC[C@]5(C)[C@H]4CC[C@]3(C)[C@H]1[C@@H]2C`: the GI50 is 1.1 µM in the experiment on CCRF-CEM leukemia; 0.966 µM with COLO 205 colon; 1.44 µM in the experiment on HL-60(TB) leukemia; 1.36 µM in the experiment with OVCAR-4 ovarian; 0.657 µM with OVCAR-8 ovarian; 0.928 µM in the experiment with NCI-H460 lung. Moreover, the GI50 in the experiment on SF-295 CNS was 1.71 µM; in the experiment on HOP-62 NSCLC, 1.09 µM; in the experiment with SR leukemia it was 0.565 µM; with SF-268 CNS it was 1.21 µM. For the same compound, the TGI with CCRF-CEM leukemia was found to be 2.6 µM; in the experiment with COLO 205 colon it was 2.17 µM; with HL-60(TB) leukemia, 2.81 µM; in the experiment with OVCAR-4 ovarian, 2.71 µM; in the experiment with OVCAR-8 ovarian, 1.96 µM; in the experiment with NCI-H460 lung it was 2.29 µM. Also, the TGI was determined as 3.11 µM in the experiment with SF-295 CNS, 2.4 µM in the experiment on HOP-62 NSCLC, 2.39 µM in the experiment on SR leukemia and 2.47 µM in the experiment on SF-268 CNS.

Consider `O=c1[nH]c(=S)[nH]c(O)c1/C=C1\C=CC=N1`, for which the TGI was 75.5 µM in the experiment with CCRF-CEM leukemia; 32 µM in the experiment on COLO 205 colon; greater than 100 µM in the experiment on HL-60(TB) leukemia; 32 µM in the experiment on OVCAR-4 ovarian; 17.9 µM in the experiment on OVCAR-8 ovarian; 65.5 µM in the experiment on NCI-H460 lung. For the same compound, the TGI in the experiment on SF-295 CNS turned out to be 82.4 µM; with HOP-62 NSCLC it was 97.6 µM; in the experiment with SR leukemia, 18 µM; with SF-268 CNS, 55.1 µM.

With `O=c1[nH]c(-c2ccc(C(F)(F)F)cc2)nc2c1CSCC2`, the GI50 was greater than 100 µM in the experiment with CCRF-CEM leukemia; greater than 100 µM in the experiment on COLO 205 colon; greater than 100 µM in the experiment with HL-60(TB) leukemia; 20.1 µM with OVCAR-4 ovarian; 26.3 µM in the experiment with OVCAR-8 ovarian; greater than 100 µM in the experiment on NCI-H460 lung. The GI50 was 52.7 µM in the experiment on SF-295 CNS, 17.5 µM with HOP-62 NSCLC, greater than 100 µM with SR leukemia and 53.2 µM in the experiment on SF-268 CNS. Besides, the TGI was greater than 100 µM in the experiment with CCRF-CEM leukemia; greater than 100 µM with COLO 205 colon; greater than 100 µM in the experiment with HL-60(TB) leukemia; greater than 100 µM in the experiment with OVCAR-4 ovarian; 99 µM with OVCAR-8 ovarian; greater than 100 µM with NCI-H460 lung. Also, the TGI is greater than 100 µM in the experiment on SF-295 CNS, 51.2 µM with HOP-62 NSCLC, greater than 100 µM in the experiment on SR leukemia and greater than 100 µM in the experiment with SF-268 CNS.

Turning to `CCNCC(O)c1ccc(N)c([N+](=O)[O-])c1` (stereo unspecified), the TGI in the experiment with CCRF-CEM leukemia, in the experiment with COLO 205 colon, with HL-60(TB) leukemia, in the experiment with OVCAR-4 ovarian, with OVCAR-8 ovarian and with NCI-H460 lung was greater than 100 µM each time. Moreover, the TGI in the experiment on SF-295 CNS, with HOP-62 NSCLC, in the experiment on SR leukemia and with SF-268 CNS was greater than 100 µM in each case.

As for `COc1ccc(C(O)c2cc3c(N)c(C(=O)Nc4cccc(Br)c4)sc3nc2C)cc1` (stereo unspecified), the GI50 in the experiment with CCRF-CEM leukemia was 0.121 µM; in the experiment on COLO 205 colon, 0.127 µM; with HL-60(TB) leukemia, 0.085 µM; in the experiment on OVCAR-4 ovarian, 0.224 µM; in the experiment with OVCAR-8 ovarian, 0.139 µM; in the experiment on NCI-H460 lung it was 0.109 µM. Moreover, the GI50 in the experiment on SF-295 CNS is 0.11 µM; in the experiment on HOP-62 NSCLC it was 0.207 µM; in the experiment with SR leukemia it was 0.0979 µM; in the experiment on SF-268 CNS, 0.29 µM. Moreover, the TGI was greater than 100 µM in the experiment on CCRF-CEM leukemia; 0.773 µM in the experiment on COLO 205 colon; 0.242 µM with HL-60(TB) leukemia; greater than 84.2 µM in the experiment on OVCAR-4 ovarian; greater than 55.6 µM with OVCAR-8 ovarian; 3.61 µM with NCI-H460 lung. Moreover, the TGI in the experiment on SF-295 CNS is greater than 31.7 µM; in the experiment on HOP-62 NSCLC, greater than 42.2 µM; in the experiment on SR leukemia it was greater than 32.7 µM; with SF-268 CNS it was greater than 32.6 µM.

For `O=[N+]([O-])c1ccc(Cl)c(C2SCc3nc4ccccc4n32)c1` (stereo unspecified), the TGI was greater than 100 µM in the experiment on CCRF-CEM leukemia; greater than 100 µM in the experiment with COLO 205 colon; 78.5 µM in the experiment with HL-60(TB) leukemia; greater than 100 µM in the experiment with OVCAR-8 ovarian; 81.1 µM in the experiment on NCI-H460 lung; greater than 100 µM in the experiment with SF-295 CNS. In addition, the TGI in the experiment on SR leukemia and in the experiment with SF-268 CNS was greater than 100 µM throughout.

Regarding `COc1ccc(NC(=O)c2cc(OC)c(OC)c(OC)c2)cc1O`, the GI50 in the experiment with CCRF-CEM leukemia is 4.13 µM; in the experiment with COLO 205 colon it was 4.45 µM; in the experiment with HL-60(TB) leukemia, 1.08 µM; with OVCAR-4 ovarian, 15.3 µM; in the experiment with OVCAR-8 ovarian, 4.98 µM; in the experiment on NCI-H460 lung, 3 µM. In addition, the GI50 with SF-295 CNS was 2.78 µM; in the experiment on HOP-62 NSCLC it was 5.36 µM; with SR leukemia it was 0.313 µM; in the experiment with SF-268 CNS, 5.43 µM. The TGI in the experiment on CCRF-CEM leukemia is greater than 100 µM; with COLO 205 colon, greater than 100 µM; in the experiment on HL-60(TB) leukemia it was 21.6 µM; in the experiment on OVCAR-4 ovarian it was greater than 100 µM; with OVCAR-8 ovarian it was greater than 100 µM; with NCI-H460 lung it was greater than 100 µM. The TGI with SF-295 CNS, in the experiment on HOP-62 NSCLC, with SR leukemia and with SF-268 CNS was greater than 100 µM throughout.

On to `CN(C)c1ccc(/C=C/c2ccnc3ccccc23)cc1`, for which the GI50 in the experiment on CCRF-CEM leukemia was 4.52 µM; in the experiment with COLO 205 colon it was 3.37 µM; in the experiment with HL-60(TB) leukemia it was 2.86 µM; in the experiment with OVCAR-4 ovarian, 16.8 µM; in the experiment with OVCAR-8 ovarian, 5.68 µM; in the experiment with NCI-H460 lung, 3.07 µM. For the same compound, the figures for the GI50 in the experiment on SF-295 CNS, in the experiment on HOP-62 NSCLC and with SF-268 CNS were 3.43 µM, 3.34 µM and 5.58 µM, respectively. The TGI was greater than 100 µM with CCRF-CEM leukemia; > 100 µM and 16 µM in the experiment with COLO 205 colon; > 100 µM and 16.8 µM in the experiment with HL-60(TB) leukemia; greater than 100 µM in the experiment with OVCAR-4 ovarian; greater than 100 µM with OVCAR-8 ovarian; > 100 µM and 16.8 µM in the experiment with NCI-H460 lung. Moreover, the TGI in the experiment on SF-295 CNS is > 100 µM and 21.2 µM; in the experiment with HOP-62 NSCLC, > 100 µM and 16.6 µM; with SR leukemia it was greater than 100 µM; in the experiment with SF-268 CNS, greater than 100 µM.
